This is an account of results in patent publication US8877799B2, “Inorganic salt complexes of vildagliptin” (Egis Gyogyszergynar Nyilvanosan Muekoedoe Reszvenytarsasag, priority 2009, dated 2014).

The nature of data set [1]: compressibility. Format: physicochemical.
For data set [2] the following is noted: in water, after three days; pages 44 to 45 of WO 2007019255; cited from earlier work.

Regarding “Vildagliptin Calcium(II)-Chloride Trihydrate Complex (1:1:3)”, in data set [1], the “compressibility compared with vildagliptin base” value was “compressed significantly more preferably than the vildagliptin base”.

For `N#C[C@@H]1CCCN1C(=O)CNC12CC3CC(CC(O)(C3)C1)C2` [vildagliptin base, 1-[2-(3-hydroxyadamant-1-yl-amino)acetyl]pyrrolidin-(2S)-carbonitrile], the active ingredient detectable in data set [2] was 7.5%.
